The results in this text go back to patent US7888363B2, “Viral polymerase inhibitors” (Boehringer Ingelheim International GmbH, priority 2003, dated 2011).

One may read the IC50 as the concentration that gives 50% inhibition.

Sequence of hepatitis C virus RNA dependant polymerase (NS5B) (P26663 2420-3010): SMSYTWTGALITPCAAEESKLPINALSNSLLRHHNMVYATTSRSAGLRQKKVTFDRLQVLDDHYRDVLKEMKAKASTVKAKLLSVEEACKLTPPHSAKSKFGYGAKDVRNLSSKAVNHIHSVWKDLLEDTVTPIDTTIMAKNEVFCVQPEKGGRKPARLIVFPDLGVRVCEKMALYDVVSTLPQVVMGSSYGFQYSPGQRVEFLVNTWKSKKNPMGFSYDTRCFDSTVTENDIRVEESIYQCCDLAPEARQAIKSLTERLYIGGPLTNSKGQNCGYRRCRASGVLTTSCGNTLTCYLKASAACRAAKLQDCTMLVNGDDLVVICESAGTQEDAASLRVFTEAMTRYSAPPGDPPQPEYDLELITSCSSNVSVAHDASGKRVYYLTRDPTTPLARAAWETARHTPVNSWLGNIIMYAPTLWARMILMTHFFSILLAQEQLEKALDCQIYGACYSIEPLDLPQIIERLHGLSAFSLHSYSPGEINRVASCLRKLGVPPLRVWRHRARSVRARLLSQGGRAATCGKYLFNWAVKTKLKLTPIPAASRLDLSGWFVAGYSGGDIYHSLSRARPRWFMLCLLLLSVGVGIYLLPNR

In one experiment the target is hepatitis C virus RNA dependant polymerase (NS5B) (Hepatitis C virus genotype 1b, UniProt P26663). The experiment is described as follows: Inhibition of NS5B RNA dependent RNA polymerase activity. The format is biochemical. Conditions: Table 1; HCV NS5B polymerase. The procedure:
A suitable assay is described in the examples.
Inhibition of NS5B RNA Dependent RNA Polymerase Activity
The compounds of the invention were tested for inhibitory activity against the hepatitis C virus RNA dependant polymerase (NS5B), according to protocol described in WO 03/010141
As to `O=C(O)c1ccc2c(C3CCCCC3)c(-c3ccoc3)n(CC(=O)N3CCC(N4CCCCC4)CC3)c2c1` [Example 1010], the IC50 was less than 200 nM. For the compound `CC(C)N1CCN(C(=O)Cn2c(-c3ccoc3)c(C3CCCCC3)c3ccc(C(=O)O)cc32)CC1` [Example 1125], the IC50 was less than 200 nM. Same read-out and setting: then `NS(=O)(=O)c1ccc(CNC(=O)Cn2c(-c3ccoc3)c(C3CCCCC3)c3ccc(C(=O)O)cc32)cc1` [Example 1069], with 200 to 1000 nM; and `CN(CC(=O)O)C(=O)Cn1c(-c2ccc(Br)cn2)c(C2CCCCC2)c2ccc(C(=O)O)cc21` [Example 1138], with 200 to 1000 nM; and `CN(C)C(=O)Cn1c(-c2cccn2C)c(C2CCCCC2)c2ccc(C(=O)O)cc21` [Example 1039], with 200 to 1000 nM.

`O=C(O)c1ccc2c(C3CCCCC3)c(-c3ccoc3)n(CC(=O)N3CCC[C@@H]3C(=O)O)c2c1` [Example 1123] came in with a half-maximal inhibitory concentration (IC50) of 200 to 1000 nM.

Take `Cc1ccccc1N(C)C(=O)Cn1c(-c2ccoc2)c(C2CCCCC2)c2ccc(C(=O)O)cc21` [Example 1115]: the IC50 is 1000 to 10000 nM. Take `O=C(O)c1ccc2c(C3CCCCC3)c(-c3ccoc3)n(CC(=O)N3CCOCC3)c2c1` [Example 1097]: the IC50 was less than 200 nM.

`O=C(O)c1ccc2c(C3CCCCC3)c(-c3ccoc3)n(CC(=O)N3CCCC3)c2c1` [Example 1094] gave an IC50 of less than 200 nM.

`CCN(Cc1ccncc1)C(=O)Cn1c(-c2ccoc2)c(C2CCCCC2)c2ccc(C(=O)O)cc21` [Example 1005]: the IC50 lay in the range of 200 to 1000 nM. In turn, `CC(C)(NC(=O)Cn1c(-c2ccoc2)c(C2CCCCC2)c2ccc(C(=O)O)cc21)C(=O)Nc1ccc(-c2ccc(C(=O)O)o2)cc1` [Example 1053] had an IC50 of less than 200 nM. Compound `O=C(O)c1ccc2c(C3CCCCC3)c(-c3ccoc3)n(CC(=O)N3C[C@@H](O)C[C@H]3C(=O)O)c2c1` [Example 1128] returned an IC50 of less than 200 nM. The same measure, in the same setting: with `O=C(O)c1ccc2c(C3CCCCC3)c(-c3csc4ccccc34)n(CC(=O)N3CCOCC3)c2c1` [Example 1047] the figure was 1000 to 10000 nM; with `O=C(O)c1ccc2c(C3CCCCC3)c(-c3ccoc3)n(CC(=O)N3CC[C@@H]4CCCC[C@@H]4C3)c2c1` [Example 1018], 1000 to 10000 nM; with `CC(C)(C)Nc1nc(-c2c(C3CCCCC3)c3ccc(C(=O)O)cc3n2CC(=O)N2CCOCC2)cs1` [Example 1041], 200 to 1000 nM.

`COCCN1CCN(C(=O)Cn2c(-c3ccoc3)c(C3CCCCC3)c3ccc(C(=O)O)cc32)CC1` [Example 1126] returned an IC50 of less than 200 nM. `CN(C(=O)Cn1c(-c2ccoc2)c(C2CCCCC2)c2ccc(C(=O)O)cc21)C1CCCCC1` [Example 1092] showed an IC50 of less than 200 nM. `O=C(O)CN(Cc1ccccc1)C(=O)Cn1c(-c2ccoc2)c(C2CCCCC2)c2ccc(C(=O)O)cc21` [Example 1109] displayed an IC50 of 200 to 1000 nM. `CN(C)C(=O)CN(C)C(=O)Cn1c(-c2ccoc2)c(C2CCCCC2)c2ccc(C(=O)O)cc21` [Example 1121] gave an IC50 of less than 200 nM.

In turn, `CN1CCC(N(C)C(=O)Cn2c(-c3ccoc3)c(C3CCCCC3)c3ccc(C(=O)O)cc32)CC1` [Example 1104] returned an IC50 of less than 200 nM.

Staying with this experiment, now noted: Table 2; HCV NS5B polymerase.
`O=C(NS(=O)(=O)c1ccc([N+](=O)[O-])cc1)c1ccc2c(C3CCCCC3)c(-c3ccoc3)n(CC(=O)N3CCOCC3)c2c1` [Example 2018] displayed an IC50 of less than 200 nM. For `O=C(NS(=O)(=O)c1ccc(Br)cc1)c1ccc2c(C3CCCCC3)c(-c3ccoc3)n(CC(=O)N3CCOCC3)c2c1` [Example 2008], the IC50 was less than 200 nM. Regarding `Cc1c(S(=O)(=O)NC(=O)c2ccc3c(C4CCCCC4)c(-c4ccoc4)n(CC(=O)N4CCOCC4)c3c2)sc2ccc(F)cc12` [Example 2020], the 50% inhibitory concentration (IC50) was less than 200 nM. The same measure, in the same setting: then `O=C(NS(=O)(=O)c1c(F)cccc1F)c1ccc2c(C3CCCCC3)c(-c3ccoc3)n(CC(=O)N3CCOCC3)c2c1` [Example 2036], with less than 200 nM. Consider `Cc1ccccc1S(=O)(=O)NC(=O)c1ccc2c(C3CCCCC3)c(-c3ccoc3)n(CC(=O)N3CCOCC3)c2c1` [Example 2016], for which the IC50 was less than 200 nM.

In the case of `O=C(NS(=O)(=O)c1ccc(Cl)s1)c1ccc2c(C3CCCCC3)c(-c3ccoc3)n(CC(=O)N3CCOCC3)c2c1` [Example 2004], the IC50 was less than 200 nM. Compound `N#Cc1ccccc1S(=O)(=O)NC(=O)c1ccc2c(C3CCCCC3)c(-c3ccoc3)n(CC(=O)N3CCOCC3)c2c1` [Example 2032] registered a 50% inhibitory concentration (IC50) of 200 to 1000 nM. Regarding `Cc1ccc(S(=O)(=O)NC(=O)c2ccc3c(C4CCCCC4)c(-c4ccoc4)n(CC(=O)N4CCOCC4)c3c2)cc1` [Example 2022], the IC50 was less than 200 nM.

Staying with this experiment, now noted: Table 3; HCV NS5B polymerase.
Regarding `O=C(O)/C=C/c1ccc(NC(=O)C2(NC(=O)c3ccc4c(C5CCCCC5)c(-c5ccccn5)n(CC(=O)N5CCCCC5)c4c3)CCC2)cc1` [Example 3009], the IC50 was less than 200 nM.

The same experiment, now with this note: Table 4; class ranges.
Compound `CN1CCC(NC(=O)c2ccc3c(C4CCCC4)c(-c4ccoc4)n(CC(=O)N4CCOCC4)c3c2)(c2nc3ccc(C=CC(=O)O)cc3[nH]2)C1` (centres unmarked) [Example 4068] yielded an IC50 of less than 200 nM. `CN(C)C(=O)Cn1c(-c2ccoc2)c(C2CCCCC2)c2ccc(C(=O)NCc3ccccc3)cc21` [Example 4054] had an IC50 of 200 to 1000 nM. Take `C[C@@H](NC(=O)c1ccc2c(C3CCCCC3)c(-c3ccoc3)n(CC(=O)N3CCN(C)CC3)c2c1)c1ccccc1` [Example 4039]: the IC50 lay within 200 to 1000 nM. On to `CCc1nc(C2(NC(=O)c3ccc4c(C5CCCCC5)c(-c5ccoc5)n(CC(=O)N5CCC(N6CCCC6)CC5)c4c3)CCC2)cs1` [Example 4107], for which the half-inhibitory concentration (IC50) was less than 200 nM. Consider `O=C(NC1(C(=O)O)CCCCC1)c1ccc2c(C3CCCCC3)c(-c3ccoc3)n(CC(=O)N3CCOCC3)c2c1` [Example 4078], for which the IC50 was in the range of 200 to 1000 nM.

`O=C(NC1(c2csc(Nc3ccccc3)n2)CCC1)c1ccc2c(C3CCCCC3)c(-c3ccoc3)n(CC(=O)N3CCC(N4CCCC4)CC3)c2c1` [Example 4101] displayed an IC50 of 200 to 1000 nM. Take `CN1CCN(C(=O)Cn2c(-c3ccoc3)c(C3CCCCC3)c3ccc(C(=O)NCCc4ccncc4)cc32)CC1` [Example 4035]: the IC50 was in the range of 200 to 1000 nM. Regarding `CN1CCN(C(=O)Cn2c(-c3ccoc3)c(C3CCCCC3)c3ccc(C(=O)NCc4ccco4)cc32)CC1` [Example 4011], the IC50 fell in the range of 200 to 1000 nM.

With `CNC(=O)C1(NC(=O)c2ccc3c(C4CCCCC4)c(-c4ccoc4)n(CC(=O)N4CCOCC4)c3c2)CCC1` [Example 4091], the IC50 lay within 200 to 1000 nM.

In turn, `CC(C)Nc1nc(C2(NC(=O)c3ccc4c(C5CCCCC5)c(-c5ccoc5)n(CC(=O)N5CCC(N6CCCC6)CC5)c4c3)CCC2)cs1` [Example 4105] came in with an IC50 of 200 to 1000 nM.

In turn, `Cn1c(C2(NC(=O)c3ccc4c(C5CCCCC5)c(-c5ccoc5)n(CC(N)=O)c4c3)CCC2)nc2ccc(C=CC(=O)O)cc21` [Example 4100] yielded an IC50 of less than 200 nM. For the compound `CN1CCN(C(=O)Cn2c(-c3ccoc3)c(C3CCCCC3)c3ccc(C(=O)NCCN4CCOCC4)cc32)CC1` [Example 4014], the IC50 was 200 to 1000 nM. `COc1cccc([C@@H](C)NC(=O)c2ccc3c(C4CCCCC4)c(-c4ccoc4)n(CC(=O)N4CCN(C)CC4)c3c2)c1` [Example 4042] registered an IC50 of less than 200 nM.

`CN1CCN(C(=O)Cn2c(-c3ccoc3)c(C3CCCCC3)c3ccc(C(=O)NCc4ccc(O)c(O)c4)cc32)CC1` [Example 4029] had an IC50 of less than 200 nM. Still for that read-out and setting: then `C#CC1(NC(=O)c2ccc3c(C4CCCCC4)c(-c4ccoc4)n(CC(=O)N4CCOCC4)c3c2)CCCCC1` [Example 4071], with 200 to 1000 nM. Compound `NC(=O)C1(NC(=O)c2ccc3c(C4CCCCC4)c(-c4ccoc4)n(CC(=O)N4CCOCC4)c3c2)CCCC1` [Example 4072] had a half-maximal inhibitory concentration (IC50) of less than 200 nM. `CN(C)C(=O)C(C)(C)NC(=O)c1ccc2c(C3CCCCC3)c(-c3ccoc3)n(CC(=O)N3CCC(N4CCCC4)CC3)c2c1` [Example 4086]: the IC50 is less than 200 nM. In turn, `O=C(NC1(C(=O)O)COCOC1)c1ccc2c(C3CCCCC3)c(-c3ccoc3)n(CC(=O)N3CCOCC3)c2c1` [Example 4083] had an IC50 of less than 200 nM.

On to `COC(=O)C1(NC(=O)c2ccc3c(C4CCCCC4)c(-c4ccoc4)n(CC(=O)N4CCOCC4)c3c2)CCCC1` [Example 4073], for which the IC50 was in the range of 200 to 1000 nM. Compound `C[C@@H](NC(=O)c1ccc2c(C3CCCCC3)c(-c3ccoc3)n(CC(=O)N3CCOCC3)c2c1)c1ccccc1` [Example 4007] displayed a 50% inhibitory concentration (IC50) of 200 to 1000 nM. For `CN1CCN(C(=O)Cn2c(-c3ccoc3)c(C3CCCCC3)c3ccc(C(=O)NC4CCS(=O)(=O)C4)cc32)CC1` (centres unmarked) [Example 4033], the IC50 was in the range of 1000 to 10000 nM. On to `CN(C)C(=O)Cn1c(-c2ccoc2)c(C2CCCCC2)c2ccc(C(=O)NCCc3ccccc3)cc21` [Example 4055], for which the IC50 fell in the range of 200 to 1000 nM.

Staying with this experiment, now noted: Table 7; class ranges.
`CC(=O)NC1CCN(C(=O)c2ccc3c(c2)c(C2CCCCC2)c(-c2ccoc2)n3CC(=O)N2CCC(N3CCCC3)CC2)C1` (centres unmarked) [Example 7039] came in with an IC50 of 1000 to 10000 nM. For the compound `COc1cc2c(C3CCCCC3)c(-c3ccoc3)n(CC(=O)N(C)C)c2cc1C(=O)O` [Example 7006], the IC50 fell in the range of 200 to 1000 nM. Compound `CC(=O)NCCNC(=O)c1ccc2c(c1)c(C1CCCCC1)c(-c1ccoc1)n2CC(=O)N1CCC(N2CCCC2)CC1` [Example 7031] gave an IC50 of 1000 to 10000 nM. On to `O=C(O)CC(NC(=O)c1ccc2c(c1)c(C1CCCCC1)c(-c1ccoc1)n2CC(=O)N1CCC(N2CCCC2)CC1)C(F)(F)F` (centres unmarked) [Example 7051], for which the 50% inhibitory concentration (IC50) is 1000 to 10000 nM. Turning to `O=C(NCC1CCCO1)c1ccc2c(c1)c(C1CCCCC1)c(-c1ccoc1)n2CC(=O)N1CCC(N2CCCC2)CC1` (centres unmarked) [Example 7016], the IC50 is 1000 to 10000 nM.

`O=C(O)c1cc2c(cc1O)c(C1CCCCC1)c(-c1ccoc1)n2CC(=O)N1CCC(N2CCCC2)CC1` [Example 7007] showed an IC50 of 1000 to 10000 nM.

Compound `O=C(NCCSCc1c(F)cccc1Cl)c1ccc2c(c1)c(C1CCCCC1)c(-c1ccoc1)n2CC(=O)N1CCC(N2CCCC2)CC1` [Example 7038] gave a half-inhibitory concentration (IC50) of 1000 to 10000 nM. In turn, `O=C(NCc1ccccc1)c1ccc2c(c1)c(C1CCCCC1)c(-c1ccoc1)n2CC(=O)N1CCC(N2CCCC2)CC1` [Example 7027] showed an IC50 of 1000 to 10000 nM.
